Where a name gives a salt, the structure may show the parent alone.

This data set is described as follows: Dynamic moisture sorption (DMS) assessment. Format: physicochemical. The note with it: exposed to up to 90% RH. On the procedure: A dynamic moisture sorption (DMS) assessment (also known as a moisture sorption-desorption profile) was performed for samples of the crystalline diacetate salt using a VTI atmospheric microbalance, SGA-100 system (VTI Corp., Hialeah, Fla. 33016). A sample size of approximately 10 mg was used and the humidity was set at the ambient value at the start of the analysis. A typical DMS analysis consisted of three scans: ambient to 2% relative humidity (RH), 2% RH to 90% RH, 90% RH to 5% RH at a scan rate of 5% RH/step. The mass was measured every two minutes and the RH was changed to the next value (+/−5% RH) when the mass of the sample was stable to within 0.01% for 5 consecutive points.
On to `CN(CCN1CCC(OC(=O)Nc2ccccc2-c2ccccc2)CC1)C(=O)c1cccc(C(=O)NCCNCc2ccc(O)cc2)c1` [crystalline diacetate salt, biphenyl-2-ylcarbamic acid 1-[2-({3-[2-(4-hydroxybenzylamino)ethylcarbamoyl]benzoyl}methylamino)ethyl]piperidin-4-yl ester], for which the “weight gain in DMS trace (reversible sorption/desorption profile)” value is “less than 18%”.

For `CN(CCN1CCC(OC(=O)Nc2ccccc2-c2ccccc2)CC1)C(=O)c1cccc(C(=O)NCCNCc2ccc(O)cc2)c1` [crystalline monooxalate salt, Biphenyl-2-ylcarbamic Acid 1-[2-({3-[2-(4-Hydroxybenzylamino)ethylcarbamoyl]benzoyl}methylamino)ethyl]piperidin-4-yl Ester], the “weight gain in DMS trace (reversible sorption/desorption profile)” value is recorded as “less than 14%”.

Turning to `CN(CCN1CCC(OC(=O)Nc2ccccc2-c2ccccc2)CC1)C(=O)c1cccc(C(=O)NCCNCc2ccc(O)cc2)c1` [crystalline dipropionate salt, Biphenyl-2-ylcarbamic Acid 1-[2-({3-[2-(4-Hydroxybenzylamino)ethylcarbamoyl]benzoyl}methylamino)ethyl]piperidin-4-yl Ester], the “weight gain in DMS trace (reversible sorption/desorption profile)” value is reported as “less than 11%”.

The record behind these values is patent US8133905B2, “Biphenyl compounds useful as muscarinic receptor antagonists” (Theravance, Inc., priority 2005, dated 2012).
